Assays:
[1] = target: Gamma-aminobutyric acid receptor subunit alpha-1 (Rattus norvegicus, UniProt P62813)
Adenosine receptor A3 = target: T1, Adenosine receptor A3 (Homo sapiens, UniProt P0DMS8)
T1 sequence (P0DMS8 whole entry): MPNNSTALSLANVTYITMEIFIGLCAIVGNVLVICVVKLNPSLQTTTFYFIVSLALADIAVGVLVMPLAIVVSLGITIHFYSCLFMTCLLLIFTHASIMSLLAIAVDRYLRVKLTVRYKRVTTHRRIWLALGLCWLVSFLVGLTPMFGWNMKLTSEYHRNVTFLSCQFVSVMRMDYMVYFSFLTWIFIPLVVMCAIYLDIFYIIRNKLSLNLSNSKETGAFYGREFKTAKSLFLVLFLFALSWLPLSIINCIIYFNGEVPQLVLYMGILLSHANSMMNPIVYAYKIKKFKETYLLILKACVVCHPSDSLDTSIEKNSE
Also: assay procedure not described here.

Gamma-aminobutyric acid receptor subunit alpha-1, sequence (P62813 whole entry): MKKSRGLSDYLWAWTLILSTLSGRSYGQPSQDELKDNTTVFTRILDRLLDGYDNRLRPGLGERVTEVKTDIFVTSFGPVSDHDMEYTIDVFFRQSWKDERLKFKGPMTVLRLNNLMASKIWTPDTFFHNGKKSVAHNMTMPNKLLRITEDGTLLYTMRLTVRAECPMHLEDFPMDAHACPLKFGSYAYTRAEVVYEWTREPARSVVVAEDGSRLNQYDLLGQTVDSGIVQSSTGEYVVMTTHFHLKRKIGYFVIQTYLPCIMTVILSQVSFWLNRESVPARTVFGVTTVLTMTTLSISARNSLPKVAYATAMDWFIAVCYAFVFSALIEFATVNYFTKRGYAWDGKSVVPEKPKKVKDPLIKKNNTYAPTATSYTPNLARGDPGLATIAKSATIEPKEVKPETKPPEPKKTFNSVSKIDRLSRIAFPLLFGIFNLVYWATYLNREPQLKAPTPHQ

Row | Compound | AC50 [1] [µM] | AC50 (Adenosine receptor A3) [µM]
1 | O=C(NC(Cc1cc(=O)[nH]c2ccccc12)C(=O)O)c1ccc(Cl)cc1 (stereo not given) [REBAMIPIDE] | > 30 | > 30
2 | CCCCCCCCCCCCCCCCCC(=O)NCCCC[C@H](NC(=O)CC[C@@H](NC(=O)[C@H](C)NC(=O)[C@@H](C)O[C@H]1[C@H](O)[C@@H](CO)OC(O)[C@@H]1NC(C)=O)C(N)=O)C(=O)O (stereo not given in full) [ROMURTIDE] | > 30 | 2.2
3 | O=C(Oc1ccccc1C(=O)O)c1ccccc1O [SALSALATE] | > 30 | > 30
4 | CCOC(=O)[C@H](CCc1ccccc1)N[C@H]1CS[C@H](c2cccs2)CN(CC(=O)O)C1=O [TEMOCAPRIL] | > 30 | > 30
5 | C[C@@H]1C[C@H]2[C@@H]3CCC4=CC(=O)C=C[C@]4(C)C3=CC[C@]2(C)[C@H]1C(=O)CN1CCN(c2cc(N3CCCC3)nc(N3CCCC3)n2)CC1 [TIRILAZAD] | > 30 | 4.07

From ChEMBL document CHEMBL5291721, “A preclinical secondary pharmacology resource illuminates target-adverse drug reaction associations of marketed drugs” (Nat Commun, 2023)
